From ChEMBL document CHEMBL5291721, “A preclinical secondary pharmacology resource illuminates target-adverse drug reaction associations of marketed drugs” (Nat Commun, 2023) come the findings set out here.

In assay [1] the target is T1, Muscarinic acetylcholine receptor M1 (Homo sapiens, UniProt P11229).
T1 sequence (P11229 whole entry): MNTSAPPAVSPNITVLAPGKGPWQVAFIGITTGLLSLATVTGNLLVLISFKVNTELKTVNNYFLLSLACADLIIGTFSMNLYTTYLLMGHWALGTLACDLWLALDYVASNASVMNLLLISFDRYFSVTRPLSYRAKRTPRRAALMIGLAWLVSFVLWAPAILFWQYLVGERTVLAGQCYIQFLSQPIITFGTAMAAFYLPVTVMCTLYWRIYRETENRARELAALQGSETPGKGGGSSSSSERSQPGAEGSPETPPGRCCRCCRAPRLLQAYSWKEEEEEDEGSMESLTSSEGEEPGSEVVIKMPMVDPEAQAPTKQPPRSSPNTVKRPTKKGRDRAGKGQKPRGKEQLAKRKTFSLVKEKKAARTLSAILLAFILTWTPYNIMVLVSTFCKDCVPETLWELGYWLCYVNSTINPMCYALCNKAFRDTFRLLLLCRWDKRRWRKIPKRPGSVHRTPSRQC
The class given is functional, cell-based.

A further assay deals with T2, Glucocorticoid receptor (Homo sapiens, UniProt P04150).
T2 sequence (P04150 whole entry): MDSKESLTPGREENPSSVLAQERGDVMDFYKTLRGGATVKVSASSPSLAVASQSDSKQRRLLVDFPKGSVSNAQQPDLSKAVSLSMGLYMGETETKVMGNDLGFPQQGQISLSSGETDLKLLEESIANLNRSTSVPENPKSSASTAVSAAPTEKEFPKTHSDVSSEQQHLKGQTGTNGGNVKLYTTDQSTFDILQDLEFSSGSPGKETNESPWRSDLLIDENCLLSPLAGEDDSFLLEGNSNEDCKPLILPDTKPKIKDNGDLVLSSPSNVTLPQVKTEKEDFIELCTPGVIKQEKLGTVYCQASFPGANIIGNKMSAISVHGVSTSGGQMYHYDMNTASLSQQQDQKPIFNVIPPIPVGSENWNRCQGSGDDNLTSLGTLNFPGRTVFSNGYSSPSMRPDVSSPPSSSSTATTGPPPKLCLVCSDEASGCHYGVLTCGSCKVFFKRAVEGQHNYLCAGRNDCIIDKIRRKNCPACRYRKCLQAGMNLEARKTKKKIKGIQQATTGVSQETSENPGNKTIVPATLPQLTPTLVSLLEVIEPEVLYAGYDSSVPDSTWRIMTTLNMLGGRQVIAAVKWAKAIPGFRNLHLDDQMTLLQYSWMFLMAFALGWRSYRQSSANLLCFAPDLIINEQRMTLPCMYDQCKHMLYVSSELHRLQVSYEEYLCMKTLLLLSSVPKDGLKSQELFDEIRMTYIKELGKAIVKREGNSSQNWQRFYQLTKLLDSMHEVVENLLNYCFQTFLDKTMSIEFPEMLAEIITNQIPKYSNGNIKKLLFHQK
The class given is functional.

A further assay deals with T3, Estrogen receptor (Homo sapiens, UniProt P03372).
T3 sequence (P03372 whole entry): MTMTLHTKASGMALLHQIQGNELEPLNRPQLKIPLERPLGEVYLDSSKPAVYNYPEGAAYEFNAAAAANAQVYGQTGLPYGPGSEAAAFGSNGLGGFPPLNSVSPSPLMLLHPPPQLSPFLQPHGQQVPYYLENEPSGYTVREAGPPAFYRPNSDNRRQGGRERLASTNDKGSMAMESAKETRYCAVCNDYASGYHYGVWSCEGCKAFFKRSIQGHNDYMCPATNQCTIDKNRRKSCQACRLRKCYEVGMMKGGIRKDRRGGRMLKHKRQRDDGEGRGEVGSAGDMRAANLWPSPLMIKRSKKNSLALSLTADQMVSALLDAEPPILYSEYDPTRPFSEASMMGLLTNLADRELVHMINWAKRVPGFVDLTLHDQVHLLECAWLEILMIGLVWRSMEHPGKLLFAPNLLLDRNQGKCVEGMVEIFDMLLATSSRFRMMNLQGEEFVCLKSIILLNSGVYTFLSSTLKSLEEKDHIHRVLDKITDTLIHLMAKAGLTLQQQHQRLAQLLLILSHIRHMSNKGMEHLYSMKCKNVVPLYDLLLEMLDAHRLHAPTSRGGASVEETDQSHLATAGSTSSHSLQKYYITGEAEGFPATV

The target in assay [2] is Prostaglandin G/H synthase 1 (Homo sapiens, UniProt P23219). The class given is functional.
For assay [3], the target named is Synaptic vesicular amine transporter (Rattus norvegicus, UniProt Q01827). The class given is functional.
The next assay concerns the target T4, Androgen receptor (Homo sapiens, UniProt P10275).
T4 sequence (P10275 whole entry): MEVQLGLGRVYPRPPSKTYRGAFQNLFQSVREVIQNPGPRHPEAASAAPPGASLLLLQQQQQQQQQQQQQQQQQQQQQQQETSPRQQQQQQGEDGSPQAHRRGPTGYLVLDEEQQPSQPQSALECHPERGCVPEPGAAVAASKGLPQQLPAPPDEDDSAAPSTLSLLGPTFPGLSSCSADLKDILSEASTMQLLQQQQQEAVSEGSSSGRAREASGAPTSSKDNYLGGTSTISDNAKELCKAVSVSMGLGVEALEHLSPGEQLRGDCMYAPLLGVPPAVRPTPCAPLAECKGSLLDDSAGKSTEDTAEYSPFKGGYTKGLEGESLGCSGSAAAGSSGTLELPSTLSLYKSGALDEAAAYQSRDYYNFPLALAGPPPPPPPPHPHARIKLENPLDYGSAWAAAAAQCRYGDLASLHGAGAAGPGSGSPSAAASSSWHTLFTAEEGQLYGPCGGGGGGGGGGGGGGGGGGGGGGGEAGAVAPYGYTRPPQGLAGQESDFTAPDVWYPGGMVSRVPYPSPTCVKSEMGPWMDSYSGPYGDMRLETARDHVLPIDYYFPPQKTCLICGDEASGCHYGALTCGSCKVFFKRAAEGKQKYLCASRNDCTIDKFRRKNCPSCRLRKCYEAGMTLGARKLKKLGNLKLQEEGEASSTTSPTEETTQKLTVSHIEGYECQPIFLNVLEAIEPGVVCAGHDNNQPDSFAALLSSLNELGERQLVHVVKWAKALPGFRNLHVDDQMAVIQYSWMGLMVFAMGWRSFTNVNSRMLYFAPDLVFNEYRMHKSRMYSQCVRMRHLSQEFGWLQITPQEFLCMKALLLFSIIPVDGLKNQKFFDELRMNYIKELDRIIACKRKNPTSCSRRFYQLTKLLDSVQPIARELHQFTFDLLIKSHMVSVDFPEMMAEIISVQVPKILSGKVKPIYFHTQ

As a reminder, the AC50 is the midpoint of the concentration-response curve, whichever way the signal moves.
Note: assay procedure not described here.

Prostaglandin G/H synthase 1, sequence (P23219 whole entry): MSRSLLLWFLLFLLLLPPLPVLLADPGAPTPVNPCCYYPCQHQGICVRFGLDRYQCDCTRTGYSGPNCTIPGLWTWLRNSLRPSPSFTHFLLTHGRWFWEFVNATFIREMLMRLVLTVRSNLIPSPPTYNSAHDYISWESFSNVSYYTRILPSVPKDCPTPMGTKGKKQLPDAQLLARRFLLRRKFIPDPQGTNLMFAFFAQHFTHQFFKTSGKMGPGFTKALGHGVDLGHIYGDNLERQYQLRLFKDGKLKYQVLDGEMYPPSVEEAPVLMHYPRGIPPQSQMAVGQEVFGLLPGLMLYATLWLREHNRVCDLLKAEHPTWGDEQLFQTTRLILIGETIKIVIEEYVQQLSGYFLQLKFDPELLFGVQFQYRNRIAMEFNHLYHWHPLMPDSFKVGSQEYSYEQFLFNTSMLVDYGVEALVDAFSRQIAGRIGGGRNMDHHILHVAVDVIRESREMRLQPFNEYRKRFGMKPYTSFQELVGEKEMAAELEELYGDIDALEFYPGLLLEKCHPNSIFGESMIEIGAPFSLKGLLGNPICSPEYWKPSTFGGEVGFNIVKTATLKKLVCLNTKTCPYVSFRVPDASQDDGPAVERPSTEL
Synaptic vesicular amine transporter, sequence (Q01827 whole entry): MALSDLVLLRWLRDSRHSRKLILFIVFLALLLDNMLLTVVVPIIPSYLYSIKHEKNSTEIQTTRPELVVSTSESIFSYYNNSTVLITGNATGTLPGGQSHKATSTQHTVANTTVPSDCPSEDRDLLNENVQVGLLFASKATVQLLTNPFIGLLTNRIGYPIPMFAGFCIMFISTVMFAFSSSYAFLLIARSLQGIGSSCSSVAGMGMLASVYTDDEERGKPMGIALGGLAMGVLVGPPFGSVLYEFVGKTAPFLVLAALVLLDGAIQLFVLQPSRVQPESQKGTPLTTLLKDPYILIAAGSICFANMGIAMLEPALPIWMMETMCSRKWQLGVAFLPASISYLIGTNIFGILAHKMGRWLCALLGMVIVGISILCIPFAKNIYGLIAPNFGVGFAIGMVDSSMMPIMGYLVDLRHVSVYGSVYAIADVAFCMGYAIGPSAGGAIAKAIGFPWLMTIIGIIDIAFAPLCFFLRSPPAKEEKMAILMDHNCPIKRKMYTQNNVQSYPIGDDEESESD

In assay [1], `CCN(CC)C(=O)C1CN2CCc3cc(OC)c(OC)cc3C2CC1OC(C)=O` (centres undefined) [BENZQUINAMIDE] registered an AC50 above 30 µM.

In turn, `COc1cccc2c1C(=O)c1c(O)c3c(c(O)c1C2=O)C[C@@](O)(C(C)=O)C[C@@H]3O[C@H]1C[C@H](N)[C@H](O)[C@H](C)O1` [DAUNORUBICIN] yielded an AC50 at Glucocorticoid receptor above 10 µM.

On to `C[n+]1ccccc1/C=N/O` [PRALIDOXIME], for which the AC50 (on Estrogen receptor; in assay [2]) was above 30 µM throughout.

Take `CCCOC(C(=O)OC1CCN(C)CC1)(c1ccccc1)c1ccccc1` [PROPIVERINE]: half-maximal activity in assay [1] (AC50) was put at 0.59 µM.

The compound `COc1ccc(C(CN(C)C)C2(O)CCCCC2)cc1` (centres undefined) [VENLAFAXINE] had an AC50 in assay [3] above 30 µM.

As to COLISTIN, the AC50 (on Androgen receptor; on Estrogen receptor; in assay [2]) was above 30 µM throughout.
